Laboratory results as given in patent US20260167623A1 (NIKANG THERAPEUTICS, INC., priority 2022, published 2026).

Target: T1, CDK2 (Homo sapiens, UniProt P24941)
T1 construct: High-Throughput Measurement of Cellular Endogenous CDK2; endogenous in cells; host or cells: OVCAR3
Assay: Inhibition of CDK2: phospho-Rb (S807/811) HTRF measurement in OVCAR3 cells, 24 h
Assay type: cell-based
Settings: 24 h compound treatment, read-out: pRB_OVCAR3_24h
Outline: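 IC50 came from a four-parameter fit of DMSO-normalized TR-FRET ratios (665/620 nm) reporting phospho-Rb S807/811. Lysates were taken from OVCAR3 cultures treated 24 h with compound (0.3 to 10,000 nM) and incubated 4 h at room temperature with the antibody pair.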

`O=C1CCC(NC(=O)c2ccc(C3CCN(CC4CCN(c5cccc(S(=O)(=O)N6CCC(Nc7ncc(Cl)cn7)CC6)c5)CC4)CC3)cc2F)C(=O)N1` (stereo not drawn) [Example 237, 4-(1-((1-(3-((4-((5-chloropyrimidin-2-yl)amino)piperidin-1-yl)sulfonyl)phenyl)piperidin-4-yl)methyl)piperidin-4-yl)-N-(2,6-dioxopiperidin-3-yl)-2-fluorobenzamide] was tested, and the IC50 was 500 to 2500 nM.

For `Cn1nc(N2CCC(=O)NC2=O)c2ccc(C3CCN(CC4CCN(c5cccc(S(=O)(=O)[C@H]6CC[C@H](Nc7ncc(C(F)(F)F)cn7)CC6)c5)CC4)CC3)cc21` [Example 240], the IC50 was greater than 2500 nM.

Work on `Cn1nc(N2CCC(=O)NC2=O)c2ccc(C3CCN(Cc4ccc(S(=O)(=O)N5CCC(Nc6ncc(OC(F)F)cn6)CC5)cc4)CC3)c(F)c21` [Example 242, 1-(6-(1-(4-((4-((5-(difluoromethoxy)pyrimidin-2-yl)amino)piperidin-1-yl)sulfonyl)benzyl)piperidin-4-yl)-7-fluoro-1-methyl-1H-indazol-3-yl)dihydropyrimidine-2,4(1H,3H)-dione] yielded an IC50 of 500 to 2500 nM.

Molecule `Cn1nc(N2CCC(=O)NC2=O)c2ccc(C3CCN(CC4CCN(c5cccc(S(=O)(=O)N6CCC(Nc7ncc(CC(F)(F)F)cn7)CC6)c5)CC4)CC3)cc21` [Example 243, 1-(1-methyl-6-(1-((1-(3-((4-((5-(2,2,2-trifluoroethyl)pyrimidin-2-yl)amino)piperidin-1-yl)sulfonyl)phenyl)piperidin-4-yl)methyl)piperidin-4-yl)-1H-indazol-3-yl)dihydropyrimidine-2,4(1H,3H)-dione] has an IC50 of 500 to 2500 nM.

Molecule `Cn1nc(N2CCC(=O)NC2=O)c2ccc(C3CCN(CC4CCN(c5cccc(S(=O)(=O)c6ccc(Nc7ncc(C(F)(F)F)cn7)cc6)c5)CC4)CC3)cc21` [Example 245, 1-(1-methyl-6-(1-((1-(3-((4-((5-(trifluoromethyl)pyrimidin-2-yl)amino)phenyl)sulfonyl)phenyl)piperidin-4-yl)methyl)piperidin-4-yl)-1H-indazol-3-yl)dihydropyrimidine-2,4(1H,3H)-dione] has an IC50 greater than 2500 nM.

In the case of `Cn1nc(C2CCC(=O)NC2=O)c2ccc(C3CCN(CC4CCN(c5cccc(S(=O)(=O)N6CCC(Nc7ncc(Cl)cn7)CC6)c5)CC4)CC3)cc21` (stereo not drawn) [Example 246, 3-(6-(1-((1-(3-((4-((5-chloropyrimidin-2-yl)amino)piperidin-1-yl)sulfonyl)phenyl)piperidin-4-yl)methyl)piperidin-4-yl)-1-methyl-1H-indazol-3-yl)piperidine-2,6-dione], the IC50 is reported as 500 to 2500 nM.

`Cn1nc(N2CCC(=O)NC2=O)c2ccc(C3CN(CC4CCN(c5cccc(S(=O)(=O)N6CCC(Nc7ncc(Cl)cn7)CC6)c5)CC4)C3)cc21` [Example 249, 1-(6-(1-((1-(3-((4-((5-chloropyrimidin-2-yl)amino)piperidin-1-yl)sulfonyl)phenyl)piperidin-4-yl)methyl)azetidin-3-yl)-1-methyl-1H-indazol-3-yl)dihydropyrimidine-2,4(1H,3H)-dione] showed an IC50 of 100 to 500 nM.

Work on `Cn1nc(N2CCC(=O)NC2=O)c2ccc(C3CCN(CC4CCN(c5cccc(S(=O)(=O)N6CCC(Nc7ncc(OC8CC8)cn7)CC6)c5)CC4)CC3)cc21` [Example 252, 1-(6-(1-((1-(3-((4-((5-cyclopropoxypyrimidin-2-yl)amino)piperidin-1-yl)sulfonyl)phenyl)piperidin-4-yl)methyl)piperidin-4-yl)-1-methyl-1H-indazol-3-yl)dihydropyrimidine-2,4(1H,3H)-dione] yielded an IC50 of 100 to 500 nM.

`CC(C)Oc1cnc(NC2CCN(S(=O)(=O)c3cccc(N4CCC(CN5CCC(c6ccc7c(N8CCC(=O)NC8=O)nn(C)c7c6)CC5)CC4)c3)CC2)nc1` [Example 253, 1-(6-(1-((1-(3-((4-((5-isopropoxypyrimidin-2-yl)amino)piperidin-1-yl)sulfonyl)phenyl)piperidin-4-yl)methyl)piperidin-4-yl)-1-methyl-1H-indazol-3-yl)dihydropyrimidine-2,4(1H,3H)-dione] gave an IC50 greater than 2500 nM.
